Legend:
[1] = target: T1, human EP4 (Homo sapiens, UniProt P35408); test: cAMP Gs functional assay (HTRF cAMP dynamic-2) in HEK293 cells transfected with EP4 Bacmam virus; assay type: cell-based; conditions: for Emax: HEK293, HEK293 cells expressing human EP4; for Emax / cAMP human EP4 Emax: positive control 10 μM PGE2; for EC50: HEK293 cells expressing human EP4, 30 mins at 37° C., mid-point of the curve, read-out: cAMP human EP4 pEC50 (converted); for cAMP human EP4 Emax: HEK293 cells expressing human EP4, unit assumed
T1 construct: expressed in transfected cells; host or cells: HEK293 cells transduced with EP4 BacMam virus (virus generated in SF9 cells)
Experimental: Cloning, Baculovirus generation, large scale infection of HEK293 cells and membrane preparation: Human prostaglandin E2 receptor 4 (EP4) was cloned into pBacMam expression vector (GeneScript, UK). Transposition of EP4 DNA was performed using Invitrogen's Bac-to-Bac Baculovirus Expression Systems. P0 baculovirus was generated by transfecting SF9 Cells with bacmid DNA using Cellfectin II transfection reagent (ThermoFisher Scientific, UK). Following P0 generation P1 virus was then generated ready for large scale infection and membrane preparation. HEK293 cells were grown in DMEM (ThermoFisher Scientific, UK), supplemented with 10% heat inactivated fetal bovine serum (FBS). Cells were infected at a seeding density of 3.5 million cells/mL in 500 cm^3 flasks at 5% v/v EP4 Bacman. Expression was carried out over a 36 hr period at 37° C. with 5% CO2. The cells were removed using PBS and a cell scrapper. The cell culture was centrifuged at 2500 RPM for 10 mins at 4° C. The supernatant was then poured off and the pellet stored at −80° C. The pellet was defrosted and re-suspended in 15 mL of homogenising buffer (20 mM HEPES, 10 mM EDTA, pH 7.4). Then homogenised in mechanical homogeniser (VMR) for 10 seconds. The membrane was centrifuged in centrifuge tubes at 40,000 g for 15 mins at 4° C. The supernatant was poured away and re-suspended in 15 mL of homogenising buffer. Homogenised for 20 seconds. The membrane was centrifuged at 40,000 g for 45 mins at 4° C. The membrane was re-suspended in 3 mL of storage buffer (20 mM HEPES, 0.1 mM EDTA, pH 7.4) mixing well. The resulting membranes were then stored at −80° C. cAMP Gs Functional Assay: CAMP production following EP4 receptor activation was determined using the Homogeneous Time-Resolved Fluorescence (HTRF) CAMP dynamic-2 assay (Cisbio, France). HEK293 cells were transfected using a 0.5% EP4 Bacmam virus for 36 hours, before dissociating the cells, and freezing at −150° C. On the day of testing, increasing concentration of test compounds, alongside positive controls (10 μM PGE2 (Tocris, Abingdon, UK)) and negative control (DMSO (Sigma-Aldrich, UK) were added to a ProxiPlate-384 Plus, White 384-shallow well Mircoplate, (PerkinElmer, USA) using the ECHO dispense. Cells were defrosted in a water bath and resuspended in DMEM supplemented with 10% FBS before centrifuging at 1200 RPM for 5 mins to form a pellet. The pellet was resuspended in assay buffer (DMEM+0.5 mM IBMX (Tocris, Abingdon, UK)) to 0.5×10^6 cells/mL. Cell suspension, for a final assay concentration of 5000 cell/well was added using the multidrop to the pre-dispensed assay plate. The plate was then incubated at 37° C. for 30 mins, with 5% CO2. The CAMP production was determined as manufacturer's instructions, before plates were read on a PheraStar fluorescence plate reader (BMG LabTech, Germany).

[2] = Unidirectional Caco-2 cell permeability assay; assay type: in vitro ADME; conditions: human, Caco-2, 10 μM, apical pH 6.5, basolateral pH 7.4, 1 hour, 37° C., n=2
Experimental: (§1) Caco-2 cells (ECACC) were seeded onto 24-well Transwell plates at 2×10^5 cells per well and used in confluent monolayers after a 21 day culture at 37° C. under 5% CO2. Test compounds were incubated at 10 μM, 0.2% DMSO final, n=2 in assay buffer (Hanks balanced salt solution supplemented with 25 mM HEPES, adjusted to pH 6.5). Hanks balanced salt solution supplemented with 25 mM HEPES, adjusted to pH 7.4 (0.2% DMSO final) was used for the basolateral chamber (as receiver).
(§2) Incubations were performed at 37° C., with samples removed from both donor and acceptor chambers at T=0 and 1 hour and compound analysed by mass spectrometry (LC-MS/MS) including an analytical internal standard (0.5 μM carbamazepine).
(§3) Apparent permeability (Papp) values are shown in Table 3 and were determined from the relationship:
(§4) Where V is the volume of each Transwell compartment (apical 125 μL, basolateral 600 μL), and concentrations are the relative MS responses for compound (normalized to internal standard) in the donor chamber before incubation and acceptor chamber at the end of the incubation Area=area of cells exposed for drug transfer (0.33 cm^2).
(§5) Lucifer Yellow (LY) was added to the apical buffer in all wells to assess viability of the cell layer. As LY cannot freely permeate lipophilic barriers, a high degree of LY transport indicates poor integrity of the cell layer and wells with a LY Papp>10×10^6 cm/s were rejected.
(§6) Compound recovery from the wells was determined from MS responses (normalized to internal standard) in donor and acceptor chambers at the end of incubation compared to response in the donor chamber pre-incubation.

[3] = system: Caco-2 cells; test: Unidirectional Caco-2 cell permeability assay; assay type: in vitro ADME; conditions: 10 μM, apical pH 6.5, basolateral pH 7.4, 1 hour, 37° C., n=2
Experimental: as §1, §2, §3, §4, §5, §6

T1 sequence (P35408 whole entry): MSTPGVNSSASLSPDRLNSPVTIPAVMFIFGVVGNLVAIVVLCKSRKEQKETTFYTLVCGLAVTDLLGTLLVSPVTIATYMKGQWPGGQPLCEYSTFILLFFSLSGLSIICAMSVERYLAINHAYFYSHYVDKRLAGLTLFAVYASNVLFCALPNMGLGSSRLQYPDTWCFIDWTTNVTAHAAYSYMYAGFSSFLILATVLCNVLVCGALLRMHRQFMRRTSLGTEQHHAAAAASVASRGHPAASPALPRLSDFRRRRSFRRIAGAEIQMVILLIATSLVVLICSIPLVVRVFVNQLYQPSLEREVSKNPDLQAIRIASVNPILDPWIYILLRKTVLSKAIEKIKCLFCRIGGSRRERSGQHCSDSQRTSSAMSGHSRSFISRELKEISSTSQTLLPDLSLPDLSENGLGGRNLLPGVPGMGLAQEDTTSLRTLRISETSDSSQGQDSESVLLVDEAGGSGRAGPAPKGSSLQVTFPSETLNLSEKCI

**Q.** What does the source list for `Cc1cc(O)ccc1-c1cccc(C(O)CCN2CCC(=O)N2CCc2ccc(C(=O)O)cc2)c1` (racemic) [1; racemate]?
**A.** Emax [1]: 97%; EC50 [1]: 3.98 nM; Papp A→B at 1 h, 10 μM [2]: 0.68 ×10⁻⁶ cm/s

**Q.** For `Cc1cc(C(N)=O)ccc1-c1cccc(C(O)CCN2CCC(=O)N2CCc2ccc(C(=O)O)cc2)c1` (racemic) [2; racemate], which Emax [1] is on record?
**A.** 99%

**Q.** What about the EC50 [1] of the same compound?
**A.** 3.16 nM

**Q.** With `Cc1cc(S(N)(=O)=O)ccc1-c1cccc(C(O)CCN2CCC(=O)N2CCc2ccc(C(=O)O)cc2)c1` (racemic) [3; racemate] as the compound, how does the Emax [1] read?
**A.** 97%

**Q.** And the EC50 [1]?
**A.** 2.51 nM

**Q.** What about the Papp A→B at 1 h, 10 μM [2] of the same compound?
**A.** 0.3 ×10⁻⁶ cm/s

**Q.** For `Cc1cc(OS(N)(=O)=O)ccc1-c1cccc(C(O)CCN2CCC(=O)N2CCc2ccc(C(=O)O)cc2)c1` (racemic) [4; racemate], which Emax [1] is on record?
**A.** 97%

**Q.** And the EC50 [1]?
**A.** 6.31 nM

**Q.** What does the source list for `Cc1cc(C(N)=O)ccc1-c1cccc(C(O)CCN2CCC(=O)N2CCc2cc(F)c(C(=O)O)c(F)c2)c1` (racemic) [5; racemate]?
**A.** Emax [1]: 97%; EC50 [1]: 50.1 nM

**Q.** What does the source list for `Cc1cc(C(N)=O)ccc1-c1cccc(C(O)CCN2CCC(=O)N2CCc2ccc(-c3nnn[nH]3)cc2)c1` (racemic) [9; racemate]?
**A.** Emax [1]: 97%; EC50 [1]: 0.158 nM; Papp A→B at 1 h, 10 μM [2]: < 0.1 ×10⁻⁶ cm/s

**Q.** Which Emax [1] does the source give for `Cc1cc(O)ccc1-c1cccc(C(O)CCN2CCC(=O)N2CCc2ccc(C(=O)O)cc2)c1` (single isomer, unassigned) [1; isomer 1] here?
**A.** 97%

**Q.** And the EC50 [1]?
**A.** 50.1 nM

**Q.** And the Papp A→B at 1 h, 10 μM [2]?
**A.** 0.86 ×10⁻⁶ cm/s

**Q.** Which results are given for `Cc1cc(O)ccc1-c1cccc(C(O)CCN2CCC(=O)N2CCc2ccc(C(=O)O)cc2)c1` (single isomer, unassigned) [1; isomer 2]?
**A.** EC50 [1]: 2 nM; cAMP human EP4 Emax [1]: 99%

**Q.** What does the source list for `Cc1cc(C(N)=O)ccc1-c1cccc(C(O)CCN2CCC(=O)N2CCc2ccc(C(=O)O)cc2)c1` (single isomer, unassigned) [2; isomer 1]?
**A.** Emax [1]: 95%; EC50 [1]: 158 nM; Papp A→B at 1 h, 10 μM [2]: < 0.29 ×10⁻⁶ cm/s

**Q.** For `Cc1cc(C(N)=O)ccc1-c1cccc(C(O)CCN2CCC(=O)N2CCc2ccc(C(=O)O)cc2)c1` (single isomer, unassigned) [2; isomer 2], which EC50 [1] is on record?
**A.** 0.501 nM

**Q.** What about the cAMP human EP4 Emax [1] of the same compound?
**A.** 98%

**Q.** And the “Caco-2 Mean Papp A-B” value [3]?
**A.** <0.47 10^−6 cm/s

**Q.** With `Cc1cc(S(N)(=O)=O)ccc1-c1cccc(C(O)CCN2CCC(=O)N2CCc2ccc(C(=O)O)cc2)c1` (single isomer, unassigned) [3; isomer 1] as the compound, how does the Emax [1] read?
**A.** 93%

**Q.** And the EC50 [1]?
**A.** 39.8 nM

**Q.** What about the “Caco-2 Mean Papp A-B” value [3] of the same compound?
**A.** 0.23 10^−6 cm/s

**Q.** What does the source list for `Cc1cc(S(N)(=O)=O)ccc1-c1cccc(C(O)CCN2CCC(=O)N2CCc2ccc(C(=O)O)cc2)c1` (single isomer, unassigned) [3; isomer 2]?
**A.** EC50 [1]: 1.26 nM; cAMP human EP4 Emax [1]: 98%; Caco-2 Mean Papp A-B [3]: 0.72 10^−6 cm/s

**Q.** Which Emax [1] does the source give for `Cc1cc(OS(N)(=O)=O)ccc1-c1cccc(C(O)CCN2CCC(=O)N2CCc2ccc(C(=O)O)cc2)c1` (single isomer, unassigned) [4; isomer 1] here?
**A.** 93%

**Q.** And the EC50 [1]?
**A.** 251 nM

**Q.** And the “Caco-2 Mean Papp A-B” value [3]?
**A.** 0.3 10^−6 cm/s

**Q.** Which EC50 [1] does the source give for `Cc1cc(OS(N)(=O)=O)ccc1-c1cccc(C(O)CCN2CCC(=O)N2CCc2ccc(C(=O)O)cc2)c1` (single isomer, unassigned) [4; isomer 2] here?
**A.** 2.51 nM

**Q.** And the cAMP human EP4 Emax [1]?
**A.** 97%

**Q.** What about the “Caco-2 Mean Papp A-B” value [3] of the same compound?
**A.** 0.67 10^−6 cm/s

**Q.** With `Cc1cc(C(N)=O)ccc1-c1cccc(C(O)CCN2CCC(=O)N2CCc2cc(F)c(C(=O)O)c(F)c2)c1` (single isomer, unassigned) [5; isomer 1] as the compound, how does the Emax [1] read?
**A.** 88%

**Q.** And the EC50 [1]?
**A.** 794 nM

**Q.** Which results are given for `Cc1cc(C(N)=O)ccc1-c1cccc(C(O)CCN2CCC(=O)N2CCc2cc(F)c(C(=O)O)c(F)c2)c1` (single isomer, unassigned) [5; isomer 2]?
**A.** EC50 [1]: 15.8 nM; cAMP human EP4 Emax [1]: 96%; Papp A→B at 1 h, 10 μM [2]: < 0.1 ×10⁻⁶ cm/s

**Q.** With `Cc1cc(S(N)(=O)=O)ccc1-c1cccc(C(O)CCN2CCC(=O)N2CCc2ccc(C(=O)O)c(O)c2)c1` (single isomer, unassigned) [6; isomer 1] as the compound, how does the Emax [1] read?
**A.** 97%

**Q.** And the EC50 [1]?
**A.** 3.98 nM

**Q.** And the Papp A→B at 1 h, 10 μM [2]?
**A.** < 0.1 ×10⁻⁶ cm/s

**Q.** With `Cc1cc(S(N)(=O)=O)ccc1-c1cccc(C(O)CCN2CCC(=O)N2CCc2ccc(C(=O)O)c(O)c2)c1` (single isomer, unassigned) [6; isomer 2] as the compound, how does the EC50 [1] read?
**A.** 50.1 nM

**Q.** What about the cAMP human EP4 Emax [1] of the same compound?
**A.** 96%

**Q.** For `Cc1cc(C(N)=O)ccc1-c1cccc(C(O)CCN2CCC(=O)N2CCc2ccc(C(=O)O)c(O)c2)c1` (single isomer, unassigned) [7; isomer 1], which Emax [1] is on record?
**A.** 99%

**Q.** And the EC50 [1]?
**A.** 3.98 nM

**Q.** What about the Papp A→B at 1 h, 10 μM [2] of the same compound?
**A.** < 0.1 ×10⁻⁶ cm/s

**Q.** With `Cc1cc(C(N)=O)ccc1-c1cccc(C(O)CCN2CCC(=O)N2CCc2ccc(C(=O)O)c(O)c2)c1` (single isomer, unassigned) [7; isomer 2] as the compound, how does the EC50 [1] read?
**A.** 100 nM

**Q.** What about the cAMP human EP4 Emax [1] of the same compound?
**A.** 97%

**Q.** What about the “Caco-2 Mean Papp A-B” value [3] of the same compound?
**A.** <0.1 10^−6 cm/s

**Q.** With `Cc1cc(S(N)(=O)=O)ccc1-c1cccc(C(O)CCN2CCC(=O)N2CCc2cc(F)c(C(=O)O)c(F)c2)c1` (single isomer, unassigned) [8; isomer 1] as the compound, how does the Emax [1] read?
**A.** 96%

**Q.** And the EC50 [1]?
**A.** 2510 nM

**Q.** With `Cc1cc(S(N)(=O)=O)ccc1-c1cccc(C(O)CCN2CCC(=O)N2CCc2cc(F)c(C(=O)O)c(F)c2)c1` (single isomer, unassigned) [8; isomer 2] as the compound, how does the EC50 [1] read?
**A.** 31.6 nM

**Q.** And the cAMP human EP4 Emax [1]?
**A.** 99%

**Q.** What about the Papp A→B at 1 h, 10 μM [2] of the same compound?
**A.** < 0.3 ×10⁻⁶ cm/s

**Q.** With `Cc1cc(C(N)=O)ccc1-c1cccc(C(O)CCN2CCC(=O)N2CCc2ccc(-c3nnn[nH]3)cc2)c1` (single isomer, unassigned) [9; isomer 1] as the compound, how does the Emax [1] read?
**A.** 93%

**Q.** What about the EC50 [1] of the same compound?
**A.** 39.8 nM

**Q.** What does the source list for `Cc1cc(C(N)=O)ccc1-c1cccc(C(O)CCN2CCC(=O)N2CCc2ccc(-c3nnn[nH]3)cc2)c1` (single isomer, unassigned) [9; isomer 2]?
**A.** EC50 [1]: 0.251 nM; cAMP human EP4 Emax [1]: 96%; Papp A→B at 1 h, 10 μM [2]: < 0.1 ×10⁻⁶ cm/s
